We go through 9 compounds from ChEMBL document CHEMBL1781930, “Facile transformation of Biginelli pyrimidin-2(1H)-ones to pyrimidines. In vitro evaluation as inhibitors of Mycobacterium tuberculosis and modulators of cytostatic activity” (Eur J Med Chem, 2011).

SMILES strings stand for the structures. Converted amounts (≈) assume the structure as drawn. The source made the active and inactive calls. The calls are words filed in the database; no cut-off is given here. A value given as a limit tells only on which side of the number the result lay.

Data set [1] is described as follows: Cytotoxicity against human embryonic lung cells. The data set is classed as cell-based.
Data set [2] is described as follows: Cytotoxicity against cat CRFK cells. It is filed as cell-based, Felis catus.
The subject of the next data set is HeLa. Nature of the data set: Cytostatic activity against human HeLa cells assessed as inhibition of cell proliferation after 3 days by particle counter assay. It is filed as functional, cell-based. The settings on record: 72 h.
For the next data set, the system named is FM3A. Nature of the data set: Cytostatic activity against mouse FM3A cells assessed as inhibition of cell proliferation after 2 days by particle counter assay. The data set is classed as functional, cell-based. As to conditions: 48 h.
A further data set has as its system L1210. Nature of the data set: Cytostatic activity against mouse L1210 cells assessed as inhibition of cell proliferation after 2 days by particle counter assay. As to conditions: L1210, 48 h. The data set is classed as functional, cell-based.
The subject of data set [3] is Human immunodeficiency virus. Put plainly: Antiviral activity against HIV at subtoxic concentration. The data set is classed as functional, organism-based.
The test system of another data set is CCRF-CEM. Nature of the data set: Cytostatic activity against human CEM cells assessed as inhibition of cell proliferation after 3 days by particle counter assay. It is filed as functional, cell-based. As to conditions: 72 h.
The test system of data set [4] is Mycobacterium tuberculosis. Put plainly: Antimycobacterial activity against Mycobacterium tuberculosis H37Rv ATCC 27294 after 7 days by microplate alamar blue assay. It is filed as functional. The settings on record: H37Rv ATCC 27294, 168 h. For orientation: The colour change of resazurin is a common sign of viable cells or microbes.
Data set [5] relates to Mycobacterium tuberculosis. Put plainly: Antimycobacterial activity against Mycobacterium tuberculosis H37Rv ATCC 27294 at […] after 7 days by microplate alamar blue assay. It is filed as functional. As to conditions: H37Rv ATCC 27294, 168 h.

Regarding `COC(=O)c1c(C)nc(NCc2ccccc2)nc1-c1ccccc1`, the MCC in data set [1] and in [2] was 4 µg/mL in each case.

Usually IC50 stands for the concentration needed to halve the response being measured. For the compound `CCOC(=O)c1c(C)nc(NCCc2c[nH]c3ccccc23)nc1-c1ccccc1`, the half-inhibitory concentration (IC50) amounted to 23 µM in the data set with HeLa, 34 µM in the data set with FM3A, 28 µM with L1210 and 31 µM in the data set on CCRF-CEM. Further, in data set [3], the outcome was inactive.

The term MIC denotes the lowest concentration found to suppress growth. A lower MIC goes with inhibition by little substance. Take `COc1c(N2C[C@@H]3CCCN[C@@H]3C2)c(F)cc2c(=O)c(C(=O)O)cn(C3CC3)c12` [MOXIFLOXACIN]: in data set [4], it took 0.47 µM (≈ 0.189 µg/mL) to inhibit growth (MIC).

On to `CCOC(=O)c1c(C)nc(Cl)nc1-c1ccccc1`, for which the result in [3] was inactive.

As for `CCOC(=O)c1cnc(NCc2ccccc2)nc1C`, the concentration for half-maximal inhibition (IC50) with HeLa turned out to be 147 µM; in the data set on FM3A, 306 µM; with L1210, 378 µM; in the data set on CCRF-CEM, 480 µM. For the same compound, the result in data set [3] was inactive.

As to `NNC(=O)c1ccncc1` [ISONIAZID], the MIC in data set [4] came to 0.12 µM (≈ 0.0165 µg/mL).

The term inhibition denotes how much of the control response was suppressed. The low end stands for a weak effect, the high end for a strong effect. `CCOC(=O)c1c(C)nc(N2CCOCC2)nc1-c1ccccc1` displayed an MIC in data set [4] of 125 µM (≈ 41 µg/mL). Besides, the IC50 in the data set with HeLa is at least 500 µM; with FM3A, over 500 µM; with L1210, over 500 µM; with CCRF-CEM it was at least 500 µM. The result in data set [3] was inactive. For the same compound, in data set [5], the inhibition at […] is 96%.

As for `COC(=O)c1c(C)nc(Cl)nc1-c1ccccc1`, in data set [3], the outcome was inactive.

On to `O=[N+]([O-])c1cn2c(n1)OC[C@@H](OCc1ccc(OC(F)(F)F)cc1)C2` [PRETOMANID], for which the MIC in data set [4] was 0.48 µM (≈ 0.172 µg/mL).
